For seven molecules, T/C results are on record in PubChem BioAssay AID272 (DTP/NCI, 2004).

Several values for one entry are separate records, joined by “and”; a condition that tells them apart may be missing. Equal entries are not always repeated. Results filed as inconclusive are left out.

This experiment concerns Lewis lung carcinoma i.m., BDF1 mice, T/C %. The experiment in a line: NCI In Vivo Anticancer Drug Screen. Data for tumor model Lewis Lung Carcinoma (intramuscular) in B6D2F1 (BDF1) mice. The method in brief:
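Value is the ratio of a treated-group measurement (T) to the matching vehicle-control measurement (C), using either survival or tumour size in mice bearing transplanted tumours.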

With `O=c1[nH]c(=O)n(C2CC(O)C(CO)O2)cc1F` (stereo not drawn), the T/C is 59 % of control (endpoint: mean tumor weight, dose: 10.0 mg/kg/injection, schedule: Q01DX009 (ip), vehicle: saline, higher = larger tumour); 83 % of control (endpoint: mean tumor weight, dose: 10.0 mg/kg/injection, schedule: Q01DX011 (ip), vehicle: other, higher = larger tumour); 72 % of control (endpoint: mean tumor weight, dose: 20.0 mg/kg/injection, schedule: Q01DX009 (ip), vehicle: saline, higher = larger tumour); 29 % of control (endpoint: mean tumor weight, dose: 20.0 mg/kg/injection, schedule: Q01DX011 (ip), vehicle: other, higher = larger tumour); 31 % of control and 42 % of control (endpoint: mean tumor weight, dose: 20.0 mg/kg/injection, schedule: Q01DX011 (ip), vehicle: saline, higher = larger tumour); 58 % of control (endpoint: mean tumor weight, dose: 25.0 mg/kg/injection, schedule: Q01DX011 (ip), vehicle: saline, higher = larger tumour). For the same molecule, the T/C reads like this: (endpoint: mean tumor weight, dose: 40.0 mg/kg/injection, schedule: Q01DX009 (ip), vehicle: saline, higher = larger tumour) 65 % of control; (endpoint: mean tumor weight, dose: 40.0 mg/kg/injection, schedule: Q01DX011 (ip), vehicle: saline, higher = larger tumour) 10 % of control and 17 % of control; (endpoint: mean tumor weight, dose: 50.0 mg/kg/injection, schedule: Q01DX011 (ip), vehicle: saline, higher = larger tumour) 18 % of control; (endpoint: mean tumor weight, dose: 80.0 mg/kg/injection, schedule: Q01DX009 (ip), vehicle: saline, higher = larger tumour) 16 % of control; (endpoint: mean tumor weight, dose: 80.0 mg/kg/injection, schedule: Q01DX011 (ip), vehicle: other, higher = larger tumour) 4 % of control; (endpoint: mean tumor weight, dose: 80.0 mg/kg/injection, schedule: Q01DX011 (ip), vehicle: saline, higher = larger tumour) 7 % of control. For the same molecule, the T/C was 3 % of control (endpoint: mean tumor weight, dose: 100.0 mg/kg/injection, schedule: Q01DX011 (ip), vehicle: saline, higher = larger tumour); 98 % of control (endpoint: median survival time, dose: 10.0 mg/kg/injection, schedule: Q01DX011 (ip), vehicle: other, higher = longer survival); 107 % of control and 120 % of control (endpoint: median survival time, dose: 10.0 mg/kg/injection, schedule: Q01DX011 (ip), vehicle: saline, higher = longer survival); 100 % of control (endpoint: median survival time, dose: 19.0 mg/kg/injection, schedule: Q01DX007 (sc), vehicle: saline, higher = longer survival); 108 % of control (endpoint: median survival time, dose: 20.0 mg/kg/injection, schedule: Q01DX011 (ip), vehicle: other, higher = longer survival); 91 % of control and 112 % of control and 123 % of control (endpoint: median survival time, dose: 20.0 mg/kg/injection, schedule: Q01DX011 (ip), vehicle: saline, higher = longer survival). The T/C is 105 % of control (endpoint: median survival time, dose: 20.0 mg/kg/injection, schedule: Q01DX011 (ip), vehicle: water, higher = longer survival); 108 % of control (endpoint: median survival time, dose: 25.0 mg/kg/injection, schedule: Q01DX011 (ip), vehicle: saline, higher = longer survival); 121 % of control (endpoint: median survival time, dose: 31.0 mg/kg/injection, schedule: Q01DX007 (sc), vehicle: saline, higher = longer survival); 114 % of control and 115 % of control (endpoint: median survival time, dose: 40.0 mg/kg/injection, schedule: Q01DX009 (ip), vehicle: saline, higher = longer survival); 97 % of control and 100 % of control (endpoint: median survival time, dose: 40.0 mg/kg/injection, schedule: Q01DX011 (ip), vehicle: saline, higher = longer survival); 113 % of control (endpoint: median survival time, dose: 40.0 mg/kg/injection, schedule: Q01DX011 (ip), vehicle: water, higher = longer survival). Moreover, the T/C was 101 % of control (endpoint: median survival time, dose: 50.0 mg/kg/injection, schedule: Q01DX009 (ip), vehicle: saline, higher = longer survival); 124 % of control (endpoint: median survival time, dose: 80.0 mg/kg/injection, schedule: Q01DX009 (ip), vehicle: saline, higher = longer survival); 153 % of control (endpoint: median survival time, dose: 80.0 mg/kg/injection, schedule: Q01DX011 (ip), vehicle: saline, higher = longer survival); 121 % of control (endpoint: median survival time, dose: 80.0 mg/kg/injection, schedule: Q01DX011 (ip), vehicle: water, higher = longer survival); 121 % of control (endpoint: median survival time, dose: 86.0 mg/kg/injection, schedule: Q01DX007 (sc), vehicle: saline, higher = longer survival).

For the molecule `O=C1CN(CCN2CC(=O)NC(=O)C2)CC(=O)N1`, the T/C reads like this: (endpoint: mean tumor weight, dose: 25.0 mg/kg/injection, schedule: Q01DX011 (ip), vehicle: steriod suspending solution, higher = larger tumour) 68 % of control and 80 % of control; (endpoint: median survival time, dose: 12.5 mg/kg/injection, schedule: Q01DX011 (ip), vehicle: steriod suspending solution, higher = longer survival) 111 % of control and 117 % of control; (endpoint: median survival time, dose: 25.0 mg/kg/injection, schedule: Q01DX011 (ip), vehicle: steriod suspending solution, higher = longer survival) 110 % of control and 114 % of control.

Take `N=c1ccn2c(n1)OC1C(OP(=O)(O)O)C(CO)OC12` (stereo not drawn): the T/C is 79 % of control (endpoint: mean tumor weight (est.), dose: 12.5 mg/kg/injection, schedule: Q01DX011 (oral), vehicle: water, higher = larger tumour); 71 % of control (endpoint: mean tumor weight (est.), dose: 25.0 mg/kg/injection, schedule: Q01DX011 (oral), vehicle: water, higher = larger tumour); 13 % of control (endpoint: mean tumor weight (est.), dose: 50.0 mg/kg/injection, schedule: Q01DX011 (oral), vehicle: water, higher = larger tumour); 12 % of control (endpoint: mean tumor weight (est.), dose: 100.0 mg/kg/injection, schedule: Q01DX011 (oral), vehicle: water, higher = larger tumour); 12 % of control (endpoint: mean tumor weight (est.), dose: 200.0 mg/kg/injection, schedule: Q01DX011 (oral), vehicle: water, higher = larger tumour); 109 % of control (endpoint: median survival time, dose: 12.5 mg/kg/injection, schedule: Q01DX011 (oral), vehicle: water, higher = longer survival). In addition, the T/C (endpoint: median survival time, dose: 25.0 mg/kg/injection, schedule: Q01DX011 (oral), vehicle: water, higher = longer survival) was 105 % of control; the T/C (endpoint: median survival time, dose: 50.0 mg/kg/injection, schedule: Q01DX011 (oral), vehicle: water, higher = longer survival) was 118 % of control; the T/C (endpoint: median survival time, dose: 100.0 mg/kg/injection, schedule: Q01DX011 (oral), vehicle: water, higher = longer survival) was 120 % of control; the T/C (endpoint: median survival time, dose: 200.0 mg/kg/injection, schedule: Q01DX011 (oral), vehicle: water, higher = longer survival) is 116 % of control.

With `CN(C)CCCNc1c2ccccc2nc2cccc([N+](=O)[O-])c12`, the T/C (endpoint: median survival time, dose: 0.1 mg/kg/injection, schedule: Q02DX011 (ip), vehicle: saline, higher = longer survival) is 88 % of control; the T/C (endpoint: median survival time, dose: 2.0 micrograms/kg/injection, schedule: Q01DX009 (ip), vehicle: saline, higher = longer survival) was 120 % of control; the T/C (endpoint: median survival time, dose: 4.0 micrograms/kg/injection, schedule: Q01DX009 (ip), vehicle: saline, higher = longer survival) is 92 % of control and 104 % of control; the T/C (endpoint: median survival time, dose: 16.0 micrograms/kg/injection, schedule: Q01DX009 (ip), vehicle: saline, higher = longer survival) was 109 % of control; the T/C (endpoint: median survival time, dose: 32.0 micrograms/kg/injection, schedule: Q01DX009 (ip), vehicle: saline, higher = longer survival) was 100 % of control; the T/C (endpoint: median survival time, dose: 64.0 micrograms/kg/injection, schedule: Q01DX009 (ip), vehicle: saline, higher = longer survival) was 88 % of control and 107 % of control.

In the case of `O=P1(NCCCl)OCCCN1CCCl` (stereo not drawn), the T/C is 101 % of control (endpoint: mean tumor weight, dose: 23.0 mg/kg/injection, schedule: Q01DX011 (ip), vehicle: water, higher = larger tumour); 66 % of control (endpoint: mean tumor weight, dose: 39.0 mg/kg/injection, schedule: Q01DX011 (ip), vehicle: water, higher = larger tumour); 72 % of control (endpoint: mean tumor weight, dose: 108.0 mg/kg/injection, schedule: Q01DX001 (ip), vehicle: water, higher = larger tumour); 14 % of control (endpoint: mean tumor weight, dose: 180.0 mg/kg/injection, schedule: Q01DX001 (ip), vehicle: water, higher = larger tumour); 118 % of control and 122 % of control (endpoint: median survival time, dose: 23.0 mg/kg/injection, schedule: Q01DX011 (ip), vehicle: water, higher = longer survival); 94 % of control and 124 % of control (endpoint: median survival time, dose: 39.0 mg/kg/injection, schedule: Q01DX011 (ip), vehicle: water, higher = longer survival). The T/C is, setting by setting: (endpoint: median survival time, dose: 65.0 mg/kg/injection, schedule: Q07DX Z (ip), vehicle: water, higher = longer survival) 110 % of control; (endpoint: median survival time, dose: 108.0 mg/kg/injection, schedule: Q01DX001 (ip), vehicle: water, higher = longer survival) 88 % of control and 98 % of control; (endpoint: median survival time, dose: 108.0 mg/kg/injection, schedule: Q01DX011 (ip), vehicle: water, higher = longer survival) 104 % of control; (endpoint: median survival time, dose: 108.0 mg/kg/injection, schedule: Q04DX Z (ip), vehicle: water, higher = longer survival) 98 % of control; (endpoint: median survival time, dose: 108.0 mg/kg/injection, schedule: Q07DX Z (ip), vehicle: water, higher = longer survival) 112 % of control; (endpoint: median survival time, dose: 180.0 mg/kg/injection, schedule: Q01DX001 (ip), vehicle: water, higher = longer survival) 114 % of control. Also, the T/C (endpoint: median survival time, dose: 180.0 mg/kg/injection, schedule: Q07DX Z (ip), vehicle: water, higher = longer survival) is 104 % of control; the T/C (endpoint: median survival time, dose: 300.0 mg/kg/injection, schedule: Q01DX001 (ip), vehicle: water, higher = longer survival) is 164 % of control and 178 % of control; the T/C (endpoint: median survival time, dose: 300.0 mg/kg/injection, schedule: Q04DX Z (ip), vehicle: water, higher = longer survival) was 120 % of control; the T/C (endpoint: median survival time, dose: 300.0 mg/kg/injection, schedule: Q07DX Z (ip), vehicle: water, higher = longer survival) was 158 % of control.

Turning to `CCOC(=O)C(CS)NC(=O)CCNC(C)=O` (stereo not drawn), the T/C is, setting by setting: (endpoint: median survival time, dose: 4.0 mg/kg/injection, schedule: Q01DX009 (ip), vehicle: water, higher = longer survival) 109 % of control; (endpoint: median survival time, dose: 8.0 mg/kg/injection, schedule: Q01DX009 (ip), vehicle: water, higher = longer survival) 119 % of control; (endpoint: median survival time, dose: 32.0 mg/kg/injection, schedule: Q01DX009 (ip), vehicle: water, higher = longer survival) 113 % of control; (endpoint: median survival time, dose: 64.0 mg/kg/injection, schedule: Q01DX009 (ip), vehicle: water, higher = longer survival) 124 % of control.

As to `CCC/C(C)=N/Nc1ccccn1`, the T/C runs as follows: (endpoint: mean tumor weight (est.), dose: 12.5 mg/kg/injection, schedule: Q01DX011 (ip), vehicle: saline with Tween-80, higher = larger tumour) 85 % of control; (endpoint: mean tumor weight (est.), dose: 25.0 mg/kg/injection, schedule: Q01DX011 (ip), vehicle: saline with Tween-80, higher = larger tumour) 84 % of control; (endpoint: mean tumor weight (est.), dose: 50.0 mg/kg/injection, schedule: Q01DX011 (ip), vehicle: saline with Tween-80, higher = larger tumour) 81 % of control; (endpoint: median survival time, dose: 12.5 mg/kg/injection, schedule: Q01DX011 (ip), vehicle: saline with Tween-80, higher = longer survival) 94 % of control; (endpoint: median survival time, dose: 25.0 mg/kg/injection, schedule: Q01DX011 (ip), vehicle: saline with Tween-80, higher = longer survival) 88 % of control.
